Data reported in US12281329B2, “Compositions and methods for immune cell modulation in adoptive immunotherapies” (Fate Therapeutics, Inc., priority 2016, dated 2025).
Structures can show the parent of a compound that is named as a salt.

Key:
T cells = experiment: In vitro T cell culture compound screen, flow cytometry for CCR7+CD62L+ cells; type: cell-based, human; settings: for CD4 Hit / CD8 Hit: 10 μM, about 6 days, anti-CD3/anti-CD28 beads, viability and cell number Z-score > −1; for CD4 Hit: hit: Z-score > +2 for percent or relative number CCR7+CD62L+ in viable CD4+; for CD8 Hit: hit: Z-score > +2 for percent or relative number CCR7+CD62L+ in viable CD8+
Text: In Vitro T Cell Culture. Fresh leukopaks (AllCells, Alameda, CA) were obtained from healthy donors, from which T cells were negatively selected using the EasySep Human T cell Enrichment Kit (Stem Cell Technologies, Vancouver, Canada). The freshly isolated T cells were aliquoted and cryopreserved. On the day the screens were initiated, T cells were thawed and washed into X-Vivo 15 with 5% human AB serum, IL-2, pen/strep, and additional supplements. Cells were dispensed into flat-bottom 384-well plates at 5×10^5 cells/ml with anti-CD3/Anti-CD28 dynabeads (ThermoFisher, Waltham, MA) at a 3:1 bead-to-cell ratio. Individual compounds were added at a final concentration of 10 μM to each well from column 3 to column 22 of each plate. Positive and negative controls were added to additional wells. Cells were incubated for about 6 days at 37 degrees with 5% CO2.
Flow Cytometry. On Day 6 of culture, cells were stained with a fixable viability marker and fluorophore-conjugated antibodies: CD3, CD4, CD8, CD45RA, CD45RO, CD62L, CCR7, CD27, and CD122 (BD Biosciences, San Jose, CA; and BioLegend, San Diego, CA). Fluorescent absolute counting beads (Spherotech, Lake Forest, IL) were added just prior to acquisition. Data acquisition was performed on a BD Fortessa X-20 (BD Biosciences) and data were analyzed using Treestar software (FlowJo, Ashland, OR) and Spotfire (Tibco, Boston, MA).
These cells are characterized by expression of CCR7 and CD62L. Therefore, cells co-expressing both of these identifying markers were evaluated. Within the viable CD4+ population and viable CD8+ population, the percent of cells co-expressing CCR7 and CD62L was determined. The expression of either CD62L or CCR7 on T cells, as indicative of the desired T cell subsets, have been described as having favorable functional characteristics for CAR-T cell therapy, and potentially other adoptive T cell therapies.
The number of events in each of these gates relative to the number of absolute counting beads in each sample was calculated, defining a relative measure of the absolute number of naïve, stem cell memory, or central memory T cells within the CD4+ and/or CD8+ populations. A z-Score relative to the screened compound samples within each 384-well plate was calculated for each of these four values: 1) percent CCR7+CD62L+ in CD4+, 2) percent CCR7+CD62L+ in CD8+, 3) absolute relative number of CCR7+CD62L+ in CD4+, and 4) absolute relative number of CCR7+CD62L+ in CD8+(FIGS. 1A and 1B). Z-scores were also calculated for the percent viability of all cells within each sample and the relative absolute number of cells within each sample. A “Z-Score” is a statistical measurement of a score's relationship to the mean in a group of scores. AZ-score of 0 means the score is the same as the mean. AZ-score can also be positive or negative, indicating whether it is above or below the mean and by how many standard deviations.

K562 cells = experiment: NK cell cytotoxicity assay, K562 target cells; type: cell-based; settings: 4 hours; NK cells overnight 10 ng/mL IL-15 only or 7 day IL-15 + 5 μM CHIR99021
Description: (§1) NK Cell Cytotoxicity Assay: Cytotoxicity was determined using a flow cytometry based method based on a previously published method (Kim, et al. J Immunol Methods. 2007 Aug. 31; 325(1-2): 51-66). NK cells were co-cultured with e450-proliferation dye-labelled targets for 4 hours. CellEvent™ Caspase-3/7 Green Flow Cytometry Assay Kit (Lifer Technologies) was used to assay for cell death among target cells, and samples were read on a BD LSRFortessa cytometer. Killing of SKOV-3 targets was quantified using the Incucyte Zoom instrument. SKOV-3 cells were transiently transduced with NucLight-Red BacMam reagent (Essen Biosciences) and co-cultured with the indicated NK cell populations for 74 hours, with images taken on two hour intervals. Caspase 3/7 activity was monitored to indicate target cells undergoing apoptosis using the CellEvent™ Caspase-3/7 Green Detection Reagent. The number of target cells was normalized to SKOV-3 cells cultured alone, and targets undergoing apoptosis were quantified based on caspase 3/7 activity.
The ability of GSK3 inhibition to enhance cytotoxicity of NK cells isolated directly from donors was assessed using in vitro killing assays. […] depleted PBMC population was treated overnight with 10 ng/mL IL-15 only (primed), or a 7 day culture combination of 10 ng/mL IL-15 and 5 μM CHIR99021. The target cells for the killing assays included K562 cells, CD20+ Raji cells, HER2+ SKOV3 cells and HER2+A549 cells. The E:T (Effector:Target) ratio applied to each assay ranged from 0.1, 0.5, 1, 5 to 10. After the target cells were incubated with the differently treated NK cells for 4 hours, the respective percentage of specific killing (target cell lysis) was calculated. […] Raji cells are less prone to NK mediated cytotoxicity.
The ability of STING agonist to enhance cytotoxicity of GSK3i multiday modulated NK cells was assessed using in vitro killing assays. […]

CD20+ Raji cells = experiment: NK cell cytotoxicity assay, Raji target cells; type: cell-based, human; settings: 4 hours; NK cells overnight IL-15 only or 7 days IL15 + GSK3i
Description: as §1
The ability of GSK3 inhibition to enhance cytotoxicity of NK cells isolated directly from donors was assessed using in vitro killing assays. […] After the target cells were incubated with the differently treated NK cells for 4 hours, the respective percentage of specific killing (target cell lysis) was calculated. […]

[1] = at least in viable CD8+ population
[2] = in both viable CD4+ population and viable CD8+ population

Compound	CD4 Hit (T cells)	number or ratio of cells co-expressing CCR7 and CD62L (T cells; [1])	CD8 Hit (T cells)	number or ratio of cells co-expressing CCR7 and CD62L (T cells; [2])	E:T50 (E:T ratio when there is 50% of target cell lysis), K562 killing assay (K562 cells)	E:T50, Raji cells (CD20+ Raji cells)
NC1CCN(c2nc3c(cc2F)c(=O)c(C(=O)O)cn3-c2ccc(F)cc2F)C1 (stereo not shown) [Tosufloxacin hydrochloride]	CD4	increased				
C=CCc1cccc(/C=N/NC(=O)CN2CCN(Cc3ccccc3)CC2)c1O [PAC-1]	CD4	increased				
Oc1c(Cl)cc(Cl)c2cccnc12 [8-Quinolinol, 5,7-dichloro-]	CD4		CD8	increased		
CC(C)(C)c1ccc(C(O)CCCN2CCC(C(O)(c3ccccc3)c3ccccc3)CC2)cc1 (stereo not shown) [Terfenadine]	CD4	increased				
Oc1cccc(-c2nc(N3CCOCC3)c3oc4ncccc4c3n2)c1 [PI-103]	CD4		CD8			
CCCc1c(-c2ccc(O)cc2)nn(-c2ccc(O)cc2)c1-c1ccc(O)cc1 [1,3,5-tris(4-hydroxyphenyl)-4-propyl-1H-pyrazole]	CD4	increased				
N.S=C(S)N1CCCC1 [1-Pyrrolidinecarbodithioic acid, ammonium salt]	CD4	increased				
CC[n+]1c(/C=C/C=C2/N(C)c3ccccc3C2(C)C)sc2ccccc21.[I-] [AC-93253 iodide]	CD4		CD8	increased		
C/C=C(/C)C(=O)O[C@H]1C(C)=C2[C@H]([C@@H]1OC(=O)CCCCCCC)[C@@](C)(OC(C)=O)C[C@H](OC(=O)CCC)[C@@]1(O)[C@H]2OC(=O)[C@@]1(C)O [Thapsigargin]		increased	CD8			
CCCc1nc2c(C)cc(-c3nc4ccccc4n3C)cc2n1Cc1ccc(-c2ccccc2C(=O)O)cc1 [Telmisartan]	CD4	increased				
C=CC1=C(C)c2cc3[nH]c(cc4nc(cc5[nH]c(cc1n2)c(C)c5CCC(=O)O)C(CCC(=O)O)=C4C)c(C)c3C=C [Protoporphyrin IX disodium]	CD4	increased				
O=C(N/N=C/c1ccc([N+](=O)[O-])o1)c1ccc(O)cc1 [Nifuroxazide]		increased	CD8			
C[C@]12CC[C@@H]3c4ccc(O)cc4C[C@@H](CCCCCCCCC[S+]([O-])CCCC(F)(F)C(F)(F)F)[C@H]3[C@@H]1CC[C@@H]2O (stereo partly shown) [Fulvestrant]		increased	CD8			
COc1ccc(-c2cc3nccn3c(Nc3ncccc3C(N)=O)n2)cc1OC [BAY 61-3606]	CD4	increased				
Oc1c(I)cc(Cl)c2cccnc12 [8-Quinolinol, 5-chloro-7-iodo-]	CD4		CD8	increased		
CN[C@H]1CC[C@@H](c2ccc(Cl)c(Cl)c2)c2ccccc21 [Sertraline]	CD4		CD8			
Sc1ncnc2nc[nH]c12 [6-Mercaptopurine]	CD4		CD8	increased		
N#CC(=C(/N)Sc1ccccc1N)/C(C#N)=C(\N)Sc1ccccc1N [U0126]	CD4	increased				
CC[N+](C)(C)c1cccc(O)c1 [Edrophonium chloride]		increased	CD8			
CC(C)C1CCC2(CO2)C2C(=O)OCC(C(=O)O)=CC12 (stereo not shown) [Heptelidic acid]	CD4		CD8	increased		
Diethylenetriaminepentaacetic acid, penta sodium	CD4		CD8	increased		
CN(C)c1ccc(C=C2C(=O)Nc3ccccc32)cc1 [SU 4312]		increased	CD8			
Nc1ncn([C@@H]2O[C@H](CO)[C@@H](O)[C@H]2O)c(=O)n1 [5-Azacytidine]	CD4		CD8	increased		
IL15: recombinant human IL-15, cytokine used alone as comparator culture (10 ng/mL)					about 10	~100
2-Naphthacenecarboxamide, 7-chloro-4-(dimethylamino)-1,4,4a,5,5a,6,11,12a-octahy		increased	CD8			
O=C(O)Cc1cc(I)c(Oc2ccc(O)c(I)c2)c(I)c1 [Tiratricol]	CD4		CD8	increased		
COc1cc2nc(N3CCCN(C)CC3)nc(NC3CCN(Cc4ccccc4)CC3)c2cc1OC [BIX01294]	CD4	increased				
CCC(CO)Nc1nc(NCc2ccccc2)c2ncn(C(C)C)c2n1 (stereo in doubt) [Roscovitine, (S)-Isomer]	CD4	increased				
